# Reference: publication PMC7316994, “In Vitro Pharmacological Profile of a New Small Molecule Bradykinin B2 Receptor Antagonist” (Frontiers in Pharmacology, 2020)
# Assays:
# [1] = test system: Gamma-aminobutyric acid GABAA, muscimol, central; experiment: radioligand binding (Table S2); settings: [3H] Muscimol, Wistar rat brain (minus cerebellum)
# Serotonin 5-HT6 = biological target: T1, Serotonin 5-HT6 (Homo sapiens, UniProt P50406); experiment: radioligand binding (Table S2); settings: [3H] LSD, Human recombinant CHO cells
# T1 construct: host or cells: CHO cells
# Adrenergic α2A = Adrenergic α2A (Homo sapiens, UniProt P08913); experiment: radioligand binding (Table S2); settings: read-out: % Inhibition @ 10 µM
# Endothelin ETB = biological target: T2, Endothelin ETB (Homo sapiens, UniProt P24530); experiment: radioligand binding (Table S2); settings: [125I] Endothelin-1, Human recombinant CHO cells
# T2 construct: host or cells: CHO cells
# rat B2 receptor = biological target: T3, rat B2 receptor (Rattus norvegicus, UniProt P25023); experiment: Ca^2+ mobilization assay, HEK293T cells; type: cell-based; settings: BK at EC80 4.32 nM
# T3 construct: host or cells: HEK293T cells
# T3 sequence (P25023 1-396): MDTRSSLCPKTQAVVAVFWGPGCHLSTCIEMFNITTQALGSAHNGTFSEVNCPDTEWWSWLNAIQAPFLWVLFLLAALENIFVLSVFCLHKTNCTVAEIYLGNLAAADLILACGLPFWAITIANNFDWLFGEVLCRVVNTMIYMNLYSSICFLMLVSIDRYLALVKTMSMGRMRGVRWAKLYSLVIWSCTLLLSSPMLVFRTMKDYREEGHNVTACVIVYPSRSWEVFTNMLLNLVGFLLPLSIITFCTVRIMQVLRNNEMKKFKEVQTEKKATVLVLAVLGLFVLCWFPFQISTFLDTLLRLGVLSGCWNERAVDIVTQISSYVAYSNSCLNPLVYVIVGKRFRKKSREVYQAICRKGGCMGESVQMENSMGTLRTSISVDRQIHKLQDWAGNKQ
# Histamine H1 = biological target: T4, Histamine H1 (Homo sapiens, UniProt P35367); experiment: radioligand binding (Table S2); settings: [3H] Pyrilamine, Human recombinant HEK-293 cells
# T4 construct: host or cells: HEK-293 cells
# Melanocortin MC5 = biological target: T5, Melanocortin MC5 (Homo sapiens, UniProt P33032); experiment: radioligand binding (Table S2); settings: [125I] NDP-α-MSH, Human recombinant CHO cells
# T5 construct: host or cells: CHO cells
# Orexin OX1 = biological target: T6, Orexin OX1 (Homo sapiens, UniProt O43613); experiment: radioligand binding (Table S2); settings: [125I] Orexin A, Human recombinant CHO cells
# T6 construct: host or cells: CHO cells
# Dopamine D1 = biological target: T7, Dopamine D1 (Homo sapiens, UniProt P21728); experiment: radioligand binding (Table S2); settings: [3H] SCH 23390, Human recombinant CHO cells
# T7 construct: host or cells: CHO cells
# Somatostatin sst5 = Somatostatin sst5 (Homo sapiens, UniProt P35346); experiment: radioligand binding (Table S2); settings: [125I] Tyr11-Somatostatin 14, Human recombinant Chem-1 cells
# Adenosine A1 = Adenosine A1 (Homo sapiens, UniProt P30542); experiment: functional assay, impedance, CHO cells (Table S2); type: cell-based; settings: read-out: % inhibition of reference agonist response @ 10 µM (antagonist effect), CPA (1 nM)
# PDGFRβ kinase = biological target: T8, PDGFRβ kinase (Homo sapiens, UniProt P09619); experiment: enzyme assay (Table S2); type: biochemical; settings: ATP + Ulight-PolyGAT (25 nM), LANCE
# T8 construct: host or cells: insect cells
# IRK (InsR) = biological target: T9, IRK (InsR) (Homo sapiens, UniProt P06213); experiment: enzyme assay (Table S2); type: biochemical; settings: ATP + Ulight-PolyGAT (50 nM), LANCE
# T9 construct: Eurofins (assay provider)
# Apelin APJ = Apelin APJ (Homo sapiens, UniProt P35414); experiment: radioligand binding (Table S2); settings: [125I] [Glp65, Nle75, Tyr77]-apelin-13, Human recombinant CHO cells
# Dopamine D4.2 = biological target: T10, Dopamine D4.2 (Homo sapiens, UniProt P21917, DEL265-296); experiment: radioligand binding (Table S2); settings: [3H] Spiperone, Human recombinant CHO-K1 cells
# T10 construct: host or cells: CHO-K1 cells
# [2] = biological target: Nicotinic acetylcholine α1, bungarotoxin (Homo sapiens, UniProt P02708+P07510+Q07001); experiment: biochemical; type: binding; settings: read-out: % Inhibition @ 10 µM
# Serotonin 5-HT3 = biological target: T11, Serotonin 5-HT3 (Homo sapiens, UniProt P46098); experiment: radioligand binding (Table S2); settings: [3H] BRL 43694, Human recombinant CHO cells
# T11 construct: host or cells: CHO cells
# T7 sequence (P21728 whole entry): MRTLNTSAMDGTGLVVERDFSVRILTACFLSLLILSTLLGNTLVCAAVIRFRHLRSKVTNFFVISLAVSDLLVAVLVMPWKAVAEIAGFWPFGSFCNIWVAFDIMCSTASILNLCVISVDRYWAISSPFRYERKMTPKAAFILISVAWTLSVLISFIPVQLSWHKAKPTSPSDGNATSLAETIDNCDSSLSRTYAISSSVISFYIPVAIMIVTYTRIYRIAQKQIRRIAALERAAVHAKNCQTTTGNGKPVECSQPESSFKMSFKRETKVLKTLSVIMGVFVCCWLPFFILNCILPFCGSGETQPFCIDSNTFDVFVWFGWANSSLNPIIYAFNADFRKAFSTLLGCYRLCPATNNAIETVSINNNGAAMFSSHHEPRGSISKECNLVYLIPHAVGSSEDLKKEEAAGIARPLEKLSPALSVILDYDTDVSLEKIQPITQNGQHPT
# T2 sequence (P24530 27-442): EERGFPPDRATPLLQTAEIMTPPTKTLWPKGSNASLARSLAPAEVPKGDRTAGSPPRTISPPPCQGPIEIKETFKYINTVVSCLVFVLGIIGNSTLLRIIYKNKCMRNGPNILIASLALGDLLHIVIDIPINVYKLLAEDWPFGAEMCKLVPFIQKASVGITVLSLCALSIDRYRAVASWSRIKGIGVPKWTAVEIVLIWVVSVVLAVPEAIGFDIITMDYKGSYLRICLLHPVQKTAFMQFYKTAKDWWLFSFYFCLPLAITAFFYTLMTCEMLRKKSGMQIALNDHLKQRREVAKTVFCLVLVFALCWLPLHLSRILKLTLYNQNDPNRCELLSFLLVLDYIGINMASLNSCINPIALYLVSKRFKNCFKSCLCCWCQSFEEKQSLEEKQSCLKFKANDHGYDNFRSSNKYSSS
# Sequence of Nicotinic acetylcholine α1, bungarotoxin (P02708 21-457): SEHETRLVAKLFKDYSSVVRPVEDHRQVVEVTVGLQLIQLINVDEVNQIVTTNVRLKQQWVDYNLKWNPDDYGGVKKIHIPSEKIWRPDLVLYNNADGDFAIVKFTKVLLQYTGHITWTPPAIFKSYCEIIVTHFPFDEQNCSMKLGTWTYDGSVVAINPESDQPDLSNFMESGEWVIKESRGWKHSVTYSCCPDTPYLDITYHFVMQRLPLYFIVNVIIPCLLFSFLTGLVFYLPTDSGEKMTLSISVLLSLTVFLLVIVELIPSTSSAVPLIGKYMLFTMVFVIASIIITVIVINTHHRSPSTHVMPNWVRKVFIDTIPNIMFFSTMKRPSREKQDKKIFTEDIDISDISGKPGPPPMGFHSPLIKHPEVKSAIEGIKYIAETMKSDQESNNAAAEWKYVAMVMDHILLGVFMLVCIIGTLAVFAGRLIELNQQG
# Sequence of Nicotinic acetylcholine α1, bungarotoxin (P07510 23-517): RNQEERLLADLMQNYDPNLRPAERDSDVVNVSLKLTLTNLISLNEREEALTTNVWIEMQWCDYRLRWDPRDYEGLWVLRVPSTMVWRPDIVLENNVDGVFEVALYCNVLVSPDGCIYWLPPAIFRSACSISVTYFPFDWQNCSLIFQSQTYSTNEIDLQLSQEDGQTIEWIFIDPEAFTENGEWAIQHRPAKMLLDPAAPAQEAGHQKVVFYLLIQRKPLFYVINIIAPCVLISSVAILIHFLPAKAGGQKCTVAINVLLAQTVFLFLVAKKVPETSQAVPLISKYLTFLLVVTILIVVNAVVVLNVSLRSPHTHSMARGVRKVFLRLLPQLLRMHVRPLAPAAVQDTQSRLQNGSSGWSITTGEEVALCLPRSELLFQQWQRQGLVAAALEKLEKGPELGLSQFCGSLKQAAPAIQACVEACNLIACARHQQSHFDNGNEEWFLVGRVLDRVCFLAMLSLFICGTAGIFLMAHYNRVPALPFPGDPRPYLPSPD
# Sequence of Nicotinic acetylcholine α1, bungarotoxin (Q07001 22-517): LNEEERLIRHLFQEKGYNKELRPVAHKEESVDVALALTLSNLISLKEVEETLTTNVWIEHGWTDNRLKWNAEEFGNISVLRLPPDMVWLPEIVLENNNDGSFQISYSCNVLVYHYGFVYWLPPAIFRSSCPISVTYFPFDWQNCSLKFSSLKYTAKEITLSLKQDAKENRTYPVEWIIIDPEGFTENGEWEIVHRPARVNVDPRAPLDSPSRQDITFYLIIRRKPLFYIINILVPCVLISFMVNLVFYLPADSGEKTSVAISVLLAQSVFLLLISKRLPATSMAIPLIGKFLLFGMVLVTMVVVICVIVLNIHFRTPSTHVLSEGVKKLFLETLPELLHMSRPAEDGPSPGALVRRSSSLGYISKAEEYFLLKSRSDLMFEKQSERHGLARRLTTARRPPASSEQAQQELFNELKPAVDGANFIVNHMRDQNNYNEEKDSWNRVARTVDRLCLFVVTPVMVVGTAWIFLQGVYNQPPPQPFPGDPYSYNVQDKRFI
# Sequence of Nicotinic acetylcholine α1, bungarotoxin (P11230 24-501, further chain): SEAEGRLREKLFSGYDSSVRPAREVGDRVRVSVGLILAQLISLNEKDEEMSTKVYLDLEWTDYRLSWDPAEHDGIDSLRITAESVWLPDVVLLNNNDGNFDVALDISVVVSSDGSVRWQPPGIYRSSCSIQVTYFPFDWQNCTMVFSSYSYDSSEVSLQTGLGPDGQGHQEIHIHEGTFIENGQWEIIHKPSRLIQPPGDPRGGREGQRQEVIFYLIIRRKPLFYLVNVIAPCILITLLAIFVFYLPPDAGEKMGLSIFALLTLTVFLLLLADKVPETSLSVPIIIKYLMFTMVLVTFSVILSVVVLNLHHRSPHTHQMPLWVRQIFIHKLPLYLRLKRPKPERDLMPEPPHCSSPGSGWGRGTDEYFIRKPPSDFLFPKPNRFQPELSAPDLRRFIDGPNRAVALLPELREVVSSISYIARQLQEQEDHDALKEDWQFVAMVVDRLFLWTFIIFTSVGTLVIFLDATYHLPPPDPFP
# T6 sequence (O43613 whole entry): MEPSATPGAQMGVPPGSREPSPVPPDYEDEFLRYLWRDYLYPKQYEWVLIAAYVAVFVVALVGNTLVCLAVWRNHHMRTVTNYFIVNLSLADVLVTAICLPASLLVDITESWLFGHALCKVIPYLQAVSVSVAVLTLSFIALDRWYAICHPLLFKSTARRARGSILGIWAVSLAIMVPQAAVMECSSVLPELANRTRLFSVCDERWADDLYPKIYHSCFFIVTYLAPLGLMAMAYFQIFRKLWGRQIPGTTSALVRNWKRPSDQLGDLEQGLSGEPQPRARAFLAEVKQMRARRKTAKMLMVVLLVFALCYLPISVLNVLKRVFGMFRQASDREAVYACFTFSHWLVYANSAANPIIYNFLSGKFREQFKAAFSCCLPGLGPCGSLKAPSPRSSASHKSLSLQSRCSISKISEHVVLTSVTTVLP
# T10 sequence (P21917 with tags, fused parts or gaps DEL265-296): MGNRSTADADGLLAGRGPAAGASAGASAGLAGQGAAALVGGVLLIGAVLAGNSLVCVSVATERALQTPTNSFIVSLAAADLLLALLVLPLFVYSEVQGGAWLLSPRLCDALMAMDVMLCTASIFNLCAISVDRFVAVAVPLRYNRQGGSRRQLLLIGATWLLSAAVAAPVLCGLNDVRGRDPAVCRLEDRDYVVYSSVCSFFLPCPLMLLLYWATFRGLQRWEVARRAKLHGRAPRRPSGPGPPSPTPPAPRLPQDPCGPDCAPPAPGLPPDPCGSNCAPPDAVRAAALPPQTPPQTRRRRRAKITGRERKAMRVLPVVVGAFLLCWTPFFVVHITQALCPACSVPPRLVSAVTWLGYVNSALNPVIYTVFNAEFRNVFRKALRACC
# T5 sequence (P33032 whole entry): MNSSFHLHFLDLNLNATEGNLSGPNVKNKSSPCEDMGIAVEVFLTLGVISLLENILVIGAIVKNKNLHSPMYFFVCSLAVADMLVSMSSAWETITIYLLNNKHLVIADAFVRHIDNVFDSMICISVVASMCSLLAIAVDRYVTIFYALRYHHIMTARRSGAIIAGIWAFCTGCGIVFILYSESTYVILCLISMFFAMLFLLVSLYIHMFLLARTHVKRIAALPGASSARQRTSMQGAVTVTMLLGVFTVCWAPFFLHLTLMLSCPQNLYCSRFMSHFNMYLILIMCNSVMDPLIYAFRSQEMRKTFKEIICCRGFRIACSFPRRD
# T1 sequence (P50406 whole entry): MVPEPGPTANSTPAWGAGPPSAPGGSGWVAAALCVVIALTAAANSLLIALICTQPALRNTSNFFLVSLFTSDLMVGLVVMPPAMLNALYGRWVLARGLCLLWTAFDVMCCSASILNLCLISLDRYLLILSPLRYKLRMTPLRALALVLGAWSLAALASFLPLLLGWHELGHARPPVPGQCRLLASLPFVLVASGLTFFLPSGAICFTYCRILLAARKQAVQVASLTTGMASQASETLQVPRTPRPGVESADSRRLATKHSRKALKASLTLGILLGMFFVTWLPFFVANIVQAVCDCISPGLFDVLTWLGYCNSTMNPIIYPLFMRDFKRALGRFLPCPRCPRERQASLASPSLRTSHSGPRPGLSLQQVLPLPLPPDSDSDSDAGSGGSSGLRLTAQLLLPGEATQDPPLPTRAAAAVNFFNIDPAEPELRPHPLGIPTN
# Sequence of Adenosine A1 (P30542 whole entry): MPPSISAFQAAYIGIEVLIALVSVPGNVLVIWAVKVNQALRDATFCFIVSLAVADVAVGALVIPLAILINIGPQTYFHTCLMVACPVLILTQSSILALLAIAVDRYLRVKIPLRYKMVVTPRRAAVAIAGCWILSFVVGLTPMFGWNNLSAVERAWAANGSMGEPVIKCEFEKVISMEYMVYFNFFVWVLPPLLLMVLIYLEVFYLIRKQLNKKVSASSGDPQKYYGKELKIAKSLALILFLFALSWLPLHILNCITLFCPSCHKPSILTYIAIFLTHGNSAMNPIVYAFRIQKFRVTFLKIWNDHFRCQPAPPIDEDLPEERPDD
compound,measurement,setting,value
"Cc1cc(-c2ncnn2C)c2cccc(OCc3c(Cl)cc(F)cc3[C@H](C)NC(=O)COC(F)F)c2n1 [Compound 3, (S)-N-(1-(3-chloro-5-fluoro-2-((2-methyl-4-(1-methyl-1H-1,2,4-triazol-5-yl)quinolin-8-yloxy)methyl)phenyl)ethyl)-2-(difluoromethoxy)acetamide]",% Inhibition @ 10 µM,[1],12%
same,inhibition at 10 µM,Serotonin 5-HT6,-4.5%
same,inhibition at 10 µM,Adrenergic α2A,-1.7%
same,inhibition at 10 µM,Endothelin ETB,7.2%
same,IC50,rat B2 receptor,1030 nM
same,Kb,rat B2 receptor,147 nM
same,inhibition at 10 µM,Histamine H1,2.5%
same,inhibition at 10 µM,Melanocortin MC5,-9.6%
same,inhibition at 10 µM,Orexin OX1,7.1%
same,inhibition at 10 µM,Dopamine D1,6.9%
same,inhibition at 10 µM,Somatostatin sst5,2%
same,inhibition at 10 µM,Adenosine A1,-2.3%
same,inhibition at 10 µM,PDGFRβ kinase,-1%
same,inhibition at 10 µM,IRK (InsR),-17.3%
same,inhibition at 10 µM,Apelin APJ,-0.4%
same,inhibition at 10 µM,Dopamine D4.2,2%
same,inhibition at 10 µM,[2],-1%
same,inhibition at 10 µM,Serotonin 5-HT3,2.1%
